Assay results as given in US20240342117A1, “Inhalable Epinephrine Formulation” (De Motu Cordis Pty Ltd, priority 2022, published 2024).

Details: over 4 weeks of storage

## CNC[C@H](O)c1ccc(O)c(O)c1 [micronized epinephrine bitartrate, epinephrine bitartrate]
  tendency to agglomerate: naturally tends to agglomerate
